Assay results: patent publication US11820766B2, “Monoacylglycerol lipase modulators” (Janssen Pharmaceutica NV, priority 2018, dated 2023)

Target: T1, human MGL from HeLa cells (Homo sapiens, UniProt Q99685)
T1 construct: combining endogenously expressed MGL from HeLa cells with test compounds; endogenous in cells; host or cells: HeLa cells / cell homogenates
T1 sequence (Q99685 1-303): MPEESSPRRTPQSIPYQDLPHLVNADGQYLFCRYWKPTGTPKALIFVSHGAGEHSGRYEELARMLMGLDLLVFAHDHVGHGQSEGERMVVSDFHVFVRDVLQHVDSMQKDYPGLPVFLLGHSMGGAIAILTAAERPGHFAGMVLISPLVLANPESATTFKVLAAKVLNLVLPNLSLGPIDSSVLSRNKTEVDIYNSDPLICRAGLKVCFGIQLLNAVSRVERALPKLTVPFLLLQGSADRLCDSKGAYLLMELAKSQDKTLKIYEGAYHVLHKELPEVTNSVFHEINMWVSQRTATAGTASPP
Assay: In vitro MGL activity assay: [glycerol-1,3-3H]-oleyl glycerol cleavage by MGL from HeLa cells
Assay type: biochemical
Details: 300 nM [Glycerol-1,3-3H]-oleyl glycerol, one hour incubation
Text: MGL is the predominant hydrolase in HeLa cells/cell homogenates.

SMILES	IC50
C[C@H]1c2nn(C)c(-c3cc(F)c(F)c(F)c3)c2CCN1C(=O)c1cc(F)cc(-n2cncn2)c1 [Example 277, [(7S)-2,7-Dimethyl-3-(3,4,5-trifluorophenyl)-5,7-dihydro-4H-pyrazolo[3,4-c]pyridin-6-yl]-[3-fluoro-5-(1,2,4-triazol-1-yl)phenyl]methanone]	22 nM
C[C@H]1c2nn(C)c(-c3cc(F)c(F)c(F)c3)c2CCN1C(=O)c1c(F)cccc1-n1cncn1 [Example 280, [(7S)-2,7-Dimethyl-3-(3,4,5-trifluorophenyl)-5,7-dihydro-4H-pyrazolo[3,4-c]pyridin-6-yl]-[2-fluoro-6-(1,2,4-triazol-1-yl)phenyl]methanone]	7.77 nM
C[C@H]1c2nn(C)c(-c3cc(F)c(F)c(F)c3)c2CCN1C(=O)c1cc(F)ccc1-n1cncn1 [Example 281, [(7S)-2,7-Dimethyl-3-(3,4,5-trifluorophenyl)-5,7-dihydro-4H-pyrazolo[3,4-c]pyridin-6-yl]-[5-fluoro-2-(1,2,4-triazol-1-yl)phenyl]methanone]	9.01 nM
C[C@H]1c2nn(C)c(-c3cc(F)c(F)c(F)c3)c2CCN1C(=O)c1ccccc1-n1cnc(C(F)(F)F)n1 [Example 282, [(7S)-2,7-Dimethyl-3-(3,4,5-trifluorophenyl)-5,7-dihydro-4H-pyrazolo[3,4-c]pyridin-6-yl]-[2-[3-(trifluoromethyl)-1,2,4-triazol-1-yl]phenyl]methanone]	1870 nM
C[C@H]1c2nn(C)c(-c3cc(F)c(F)c(F)c3)c2CCN1C(=O)c1cc(F)cc(-n2nccn2)c1 [Example 284, [(7S)-2,7-Dimethyl-3-(3,4,5-trifluorophenyl)-5,7-dihydro-4H-pyrazolo[3,4-c]pyridin-6-yl]-[3-fluoro-5-(triazol-2-yl)phenyl]methanone]	15.6 nM
C[C@H]1c2nn(C)c(-c3cc(F)c(F)c(F)c3)c2CCN1C(=O)c1cc(-n2nccn2)ccc1F [Example 285, [(7S)-2,7-Dimethyl-3-(3,4,5-trifluorophenyl)-5,7-dihydro-4H-pyrazolo[3,4-c]pyridin-6-yl]-[2-fluoro-5-(triazol-2-yl)phenyl]methanone]	18.6 nM
Cc1cc(C(=O)N2CCc3c(nn(C)c3-c3cc(F)c(F)c(F)c3)[C@@H]2C)cc(-n2nccn2)c1 [Example 286, [(7S)-2,7-Dimethyl-3-(3,4,5-trifluorophenyl)-5,7-dihydro-4H-pyrazolo[3,4-c]pyridin-6-yl]-[3-methyl-5-(triazol-2-yl)phenyl]methanone]	2.27 nM
C[C@H]1c2nn(C)c(-c3cc(F)c(F)c(F)c3)c2CCN1C(=O)c1cc(-n2nccn2)cc(C(F)(F)F)c1 [Example 287, [(7S)-2,7-Dimethyl-3-(3,4,5-trifluorophenyl)-5,7-dihydro-4H-pyrazolo[3,4-c]pyridin-6-yl]-[3-(triazol-2-yl)-5-(trifluoromethyl)phenyl]methanone]	60.4 nM
C[C@H]1c2nn(C)c(-c3cc(F)c(F)c(F)c3)c2CCN1C(=O)c1cc(F)cc(-n2cnnc2)c1 [Example 292, [(7S)-2,7-Dimethyl-3-(3,4,5-trifluorophenyl)-5,7-dihydro-4H-pyrazolo[3,4-c]pyridin-6-yl]-[3-fluoro-5-(1,2,4-triazol-4-yl)phenyl]methanone]	245 nM
Cc1cc(C(=O)N2CCc3c(nn(C)c3-c3cc(F)c(F)c(F)c3)[C@@H]2C)cc(-n2cnnc2)c1 [Example 293, [(7S)-2,7-Dimethyl-3-(3,4,5-trifluorophenyl)-5,7-dihydro-4H-pyrazolo[3,4-c]pyridin-6-yl]-[3-methyl-5-(1,2,4-triazol-4-yl)phenyl]methanone]	63 nM
C[C@H]1c2nn(C)c(-c3cc(F)c(F)c(F)c3)c2CCN1C(=O)c1cc(-n2cnnc2)cc(C(F)(F)F)c1 [Example 296, [(7S)-2,7-Dimethyl-3-(3,4,5-trifluorophenyl)-5,7-dihydro-4H-pyrazolo[3,4-c]pyridin-6-yl]-[3-(1,2,4-triazol-4-yl)-5-(trifluoromethyl)phenyl]methanone]	608 nM

Results, then the compound that gave them:

IC50	SMILES
93.1 nM	C[C@H]1c2nn(C)c(-c3cc(F)c(F)c(F)c3)c2CCN1C(=O)c1cccc(-c2cnn(C)c2)c1 [Example 273, [(7S)-2,7-Dimethyl-3-(3,4,5-trifluorophenyl)-5,7-dihydro-4H-pyrazolo[3,4-c]pyridin-6-yl]-[3-(1-methylpyrazol-4-yl)phenyl]methanone]
13.7 nM	C[C@H]1c2nn(C)c(-c3cc(F)c(F)c(F)c3)c2CCN1C(=O)c1cc(-c2cnn(C)c2)ccc1F [Example 274, [(7S)-2,7-Dimethyl-3-(3,4,5-trifluorophenyl)-5,7-dihydro-4H-pyrazolo[3,4-c]pyridin-6-yl]-[2-fluoro-5-(1-methylpyrazol-4-yl)phenyl]methanone]
67.3 nM	C[C@H]1c2nn(C)c(-c3cc(F)c(F)c(F)c3)c2CCN1C(=O)c1cccc(-n2cc(F)cn2)c1 [Example 275, [(7S)-2,7-Dimethyl-3-(3,4,5-trifluorophenyl)-5,7-dihydro-4H-pyrazolo[3,4-c]pyridin-6-yl]-[3-(4-fluoropyrazol-1-yl)phenyl]methanone]
145 nM	Cc1ncn(-c2cccc(C(=O)N3CCc4c(nn(C)c4-c4cc(F)c(F)c(F)c4)[C@@H]3C)c2)n1 [Example 276, [(7S)-2,7-Dimethyl-3-(3,4,5-trifluorophenyl)-5,7-dihydro-4H-pyrazolo[3,4-c]pyridin-6-yl]-[3-(3-methyl-1,2,4-triazol-1-yl)phenyl]methanone]
3.24 nM	COc1cc(C(=O)N2CCc3c(nn(C)c3-c3cc(F)c(F)c(F)c3)[C@@H]2C)cc(-n2cncn2)c1 [Example 278, [(7S)-2,7-Dimethyl-3-(3,4,5-trifluorophenyl)-5,7-dihydro-4H-pyrazolo[3,4-c]pyridin-6-yl]-[3-methoxy-5-(1,2,4-triazol-1-yl)phenyl]methanone]
7.34 nM	C[C@H]1c2nn(C)c(-c3cc(F)c(F)c(F)c3)c2CCN1C(=O)c1ccccc1-n1cncn1 [Example 279, [(7S)-2,7-Dimethyl-3-(3,4,5-trifluorophenyl)-5,7-dihydro-4H-pyrazolo[3,4-c]pyridin-6-yl]-[2-(1,2,4-triazol-1-yl)phenyl]methanone]
19.1 nM	C[C@H]1c2nn(C)c(-c3cc(F)c(F)c(F)c3)c2CCN1C(=O)c1cccc(-n2nccn2)c1 [Example 283, [(7S)-2,7-Dimethyl-3-(3,4,5-trifluorophenyl)-5,7-dihydro-4H-pyrazolo[3,4-c]pyridin-6-yl]-[3-(triazol-2-yl)phenyl]methanone]
59.8 nM	C[C@H]1c2nn(C)c(-c3cc(F)c(F)c(F)c3)c2CCN1C(=O)c1c(F)cccc1-n1nccn1 [Example 288, [(7S)-2,7-Dimethyl-3-(3,4,5-trifluorophenyl)-5,7-dihydro-4H-pyrazolo[3,4-c]pyridin-6-yl]-[2-fluoro-6-(triazol-2-yl)phenyl]methanone]
19.8 nM	COc1ccc(-n2nccn2)c(C(=O)N2CCc3c(nn(C)c3-c3cc(F)c(F)c(F)c3)[C@@H]2C)c1 [Example 289, [(7S)-2,7-Dimethyl-3-(3,4,5-trifluorophenyl)-5,7-dihydro-4H-pyrazolo[3,4-c]pyridin-6-yl]-[5-methoxy-2-(triazol-2-yl)phenyl]methanone]
71.8 nM	C[C@H]1c2nn(C)c(-c3cc(F)c(F)c(F)c3)c2CCN1C(=O)c1cccc(-n2cnnc2)c1 [Example 290, [(7S)-2,7-Dimethyl-3-(3,4,5-trifluorophenyl)-5,7-dihydro-4H-pyrazolo[3,4-c]pyridin-6-yl]-[3-(1,2,4-triazol-4-yl)phenyl]methanone]
1400 nM	C[C@H]1c2nn(C)c(-c3cc(F)c(F)c(F)c3)c2CCN1C(=O)c1ccc(F)c(-n2cnnc2)c1 [Example 291, [(7S)-2,7-Dimethyl-3-(3,4,5-trifluorophenyl)-5,7-dihydro-4H-pyrazolo[3,4-c]pyridin-6-yl]-[4-fluoro-3-(1,2,4-triazol-4-yl)phenyl]methanone]
1660 nM	Cc1ccc(C(=O)N2CCc3c(nn(C)c3-c3cc(F)c(F)c(F)c3)[C@@H]2C)cc1-n1cnnc1 [Example 294, [(7S)-2,7-Dimethyl-3-(3,4,5-trifluorophenyl)-5,7-dihydro-4H-pyrazolo[3,4-c]pyridin-6-yl]-[4-methyl-3-(1,2,4-triazol-4-yl)phenyl]methanone]
923 nM	COc1ccc(C(=O)N2CCc3c(nn(C)c3-c3cc(F)c(F)c(F)c3)[C@@H]2C)cc1-n1cnnc1 [Example 297, [(7S)-2,7-Dimethyl-3-(3,4,5-trifluorophenyl)-5,7-dihydro-4H-pyrazolo[3,4-c]pyridin-6-yl]-[4-methoxy-3-(1,2,4-triazol-4-yl)phenyl]methanone]
18.7 nM	COc1cc(C(=O)N2CCc3c(nn(C)c3-c3cc(F)c(F)c(F)c3)[C@@H]2C)cc(-n2cnnc2)c1 [Example 298, [(7S)-2,7-Dimethyl-3-(3,4,5-trifluorophenyl)-5,7-dihydro-4H-pyrazolo[3,4-c]pyridin-6-yl]-[3-methoxy-5-(1,2,4-triazol-4-yl)phenyl]methanone]
263 nM	COc1ccc(C(=O)N2CCc3c(nn(C)c3-c3cc(F)c(F)c(F)c3)[C@@H]2C)cn1 [Example 300, [(7S)-2,7-Dimethyl-3-(3,4,5-trifluorophenyl)-5,7-dihydro-4H-pyrazolo[3,4-c]pyridin-6-yl]-(6-methoxy-3-pyridyl)methanone]
248 nM	COc1ccc(C(=O)N2CCc3c(nn(C)c3-c3cc(F)c(F)c(F)c3)[C@@H]2C)nc1 [Example 301, [(7S)-2,7-Dimethyl-3-(3,4,5-trifluorophenyl)-5,7-dihydro-4H-pyrazolo[3,4-c]pyridin-6-yl]-(5-methoxy-2-pyridyl)methanone]
